Reference: patent US20090170846A1, “INHIBITORS OF THE HIV INTEGRASE ENZYME” (Pfizer Inc, priority 2005, published 2009)
Like-named read-outs stand apart in the source and are kept apart here.

Legend:
[1] = molecular target: T1, Full-length wild type HIV-1 integrase (SF1) (Human immunodeficiency virus type 1 group M subtype B, UniProt P04585); experiment: Integrase strand-transfer scintillation proximity assay; assay type: biochemical; conditions: integrase strand-transfer SPA; read-out: IC50
T1 construct: made in house; host or cells: E. coli BL21 (DE3)
Excerpt: Integrase Strand-Transfer Scintillation Proximity Assay
Oligonucleotides: Oligonucleotide #1-5′-(biotin)[…]-3′ (SEQ ID NO: 1) and oligonucleotide #2-5′-[…]-3′ (SEQ ID NO: 2), were synthesized by TriLink BioTechnologies, Inc. (San Diego, Calif.). The annealed product represents preprocessed viral ds-DNA derived from the LTR U5 sequence of the viral genome. A ds-DNA control to test for non-specific interactions was made using a 3′ di-deoxy derivative of oligonucleotide #1 annealed to oligonucleotide #2. The CA overhang at the 5′ end of the non-biotinylated strand of the ds-DNA was created artificially by using a complimentary DNA oligonucleotide shortened by 2 base pairs. This configuration eliminates the requisite 3′ processing step of the integrase enzyme prior to the strand-transfer mechanism.
Host ds-DNA was prepared as an unlabeled and [^3H]-thymidine labeled product from annealed oligonucleotide #3-5-[…]-3′ (SEQ ID NO: 3), and oligonucleotide #4-1-5′-[…]-3′ (SEQ ID NO: 4), both synthesized by TriLink BioTechnologies, Inc. (San Diego, Calif.). The annealed product had overhanging 3′ ends of poly(dA). Host DNA was custom radiolabeled by PerkinElmer Life Sciences Inc. (Boston, Mass.) using an enzymatic method with a 12/1 ratio of [methyl-^3H]dTTP/cold ds-DNA to yield 5′-blunt end ds-DNA with a specific activity of >900 Ci/mmol. The radiolabeled product was purified using a NENSORB cartridge and stored in stabilized aqueous solution (PerkinElmer). The final radiolabeled product had six [^3H]-thymidine nucleotides at both 5′ ends of the host ds-DNA.
Reagents: Streptavidin-coated polyvinyltoluene (PVT) SPA beads were purchased from Amersham Biosciences (Piscataway, N.J.). Cesium chloride was purchased from Shelton Scientific, Inc. (Shelton, Conn.). White, polystyrene, flat-bottom, non-binding surface, 96-well plates were purchased from Corning. All other buffer components were purchased from Sigma (St. Louis, Mo.) unless otherwise indicated.
Enzyme Construction Full-length wild type HIV-1 integrase (SF1) sequence (amino acids 1-289) was constructed in a pET24a vector (Novagen, Madison, Wis.). The construct was confirmed through DNA sequencing.
Enzyme Purification Full length wild-type HIV Integrase was expressed in E. coli BL21 (DE3) cells and induced with 1 mM isopropyl-1 thio-β-D-galactopyranoside (IPTG) when cells reached an optical density between 0.8-1.0 at 600 nm. Cells were lysed by microfluidation in 50 mM HEPES pH 7.0, 75 mM NaCl, 5 mM DTT, 1 mM 4-(2-Aminoethyl)benzenesulfonylfluoride HCl (AEBSF). Lysate was then centrifuged 20 minutes at 11 k rpm in GSA rotor in Sorvall RC-5B at 4° C. Supernant was discarded and pellet resuspended in 50 mM HEPES pH 7.0, 750 mM NaCl, 5 mM DTT, 1 mM AEBSF and homogenized in a 40 mL Dounce homogenizer for 20 minutes on ice. Homogenate was then centrifuged 20 minutes at 11 k rpm in SS34 rotor in Sorvall RC-5B at 4° C. Supernant was discarded and pellet resuspended in 50 mM HEPES pH 7.0, 750 mM NaCl, 25 mM CHAPS, 5 mM DTT, 1 mM AEBSF. Preparation was then centrifuged 20 minutes at 11 k rpm in SS34 rotor in Sorvall RC-5B at 4° C.
Supernant was then diluted 1:1 with 50 mM HEPES pH 7.0, 25 mM CHAPS, 1 mM DTT, 1 mM AEBSF and loaded onto a Q-Sepharose column pre-equilibrated with 50 mM HEPES, pH 7.0, 375 mM NaCl, 25 mM CHAPS, 1 mM DTT, 1 mM AEBSF. The flow through peak was collected and NaCl diluted to 0.1 M with 50 mM HEPES pH 7.0, 25 mM CHAPS, 1 mM DTT, 0.5 mM AEBSF and loaded onto a SP-Sepharose column pre-equilibrated with 50 mM HEPES pH 7.0, 100 mM NaCl, 25 mM CHAPS, 1 mM DTT, 0.5 mM AEBSF. After washing the column with the equilibration buffer, a 100 to 400 mM NaCl gradient was run. The eluted integrase was concentrated and run on a S-300 gel diffusion column using 50 mM HEPES pH 7.0, 500 mM NaCl, 25 mM CHAPS, 1 mM DTT, 0.5 mM AEBSF. The peak from this column was concentrated to 0.76 mg/mL and stored at −70° C. and later used for strand transfer assays. […]

[2] = test system: RF strain of HIV-1 in CEM-SS cells; experiment: HIV-1 cell protection assay (XTT dye reduction); assay type: cell-based
Procedure: HIV-1 Cell Protection Assay
The antiviral activities of potential modulator compounds (test compounds) were determined in HIV-1 cell protection assays using the RF strain of HIV-1, CEM-SS cells, and the XTT dye reduction method (Weislow, O, S. et al., J. Natl. Cancer Inst 81: 577-586 (1989)). Subject cells were infected with HIV-1 RF virus at an moi of to affect about a 90% kill (for example, an moi in the range of from about 0.025 to about 0.819) or mock infected with medium only and added at 2×10^4 cells per well, with the addition of approximately 200 μL of medium, into 96 well plates containing half-log dilutions of test compounds. Six days later, 50 μl of XTT solution (1 mg/ml XTT tetrazolium and 20 nM phenazine methosulfate) were added to the wells and the plates were reincubated for four hours. Viability, as determined by the amount of XTT formazan produced, was quantified spectrophotometrically by absorbance at 450 nm.
Data from CPE assays were expressed as the percent of formazan produced in compound-treated cells compared to formazan produced in wells of uninfected, compound-free cells. The fifty percent effective concentration (EC50) was calculated as the concentration of compound that affected an increase in the percentage of formazan production in infected, compound-treated cells to 50% of that produced by uninfected, compound-free cells. The 50% cytotoxicity concentration (CC50) was calculated as the concentration of compound that decreased the percentage of formazan produced in uninfected, compound-treated cells to 50% of that produced in uninfected, compound-free cells. The therapeutic index was calculated by dividing the cytotoxicity (CC50) by the antiviral activity (EC50).

[3] = Human immunodeficiency virus 1, 144 h, HIV-1 RF, CEM-SS cells, XTT, six days, read-out: EC50
[4] = Human immunodeficiency virus 1, CEM-SS, 144 h

SMILES | IC50 [1] [µM] | EC50 [2, 3] [µM] | EC50 [2, 4] [µM]
O=C(NO)c1cc2c(NS(=O)(=O)Cc3ccccc3)cn(Cc3ccc(F)cc3)c2cn1 [Example 19, 3-[(benzylsulfonyl)amino]-1-(4-fluorobenzyl)-N-hydroxy-1H-pyrrolo[2,3-c]pyridine-5-carboxamide] | 0.105 | 0.018 | 
O=C(NO)c1cc2c(NS(=O)(=O)c3ccc4c(c3)CNCC4)cn(Cc3ccc(F)cc3)c2cn1 [Example 20, 1-(4-fluorobenzyl)-N-hydroxy-3-[(1,2,3,4-tetrahydroisoquinolin-7-ylsulfonyl)amino]-1H-pyrrolo[2,3-c]pyridine-5-carboxamide] | 0.37 | 0.58 | 
O=C(NO)c1cc2c(NS(=O)(=O)c3ccc(Cl)s3)cn(Cc3ccc(F)cc3)c2cn1 [Example 21, 3-{[(5-chloro-2-thienyl)sulfonyl]amino}-1-(4-fluorobenzyl)-N-hydroxy-1H-pyrrolo[2,3-c]pyridine-5-carboxamide] | 0.102 | 0.071 | 
CN(O)C(=O)c1cc2c(C(=O)N3CCC[C@H]3CO)cn(Cc3ccc(F)cc3)c2cn1 [Example 22, 1-(4-fluorobenzyl)-N-hydroxy-3-{[(2S)-2-(hydroxymethyl)pyrrolidin-1-yl]carbonyl}-N-methyl-1H-pyrrolo[2,3-c]pyridine-5-carboxamide] | 0.32 |  | 0.17
O=C(NO)c1cc2c(C(=O)N3CCC[C@H]3CO)cn(Cc3ccc(F)cc3)c2cn1 [Example 23, 1-(4-fluorobenzyl)-N-hydroxy-3-{[(2S)-2-(hydroxymethyl)pyrrolidin-1-yl]carbonyl}-1H-pyrrolo[2,3-c]pyridine-5-carboxamide] | 0.075 |  | 0.057
O=C(CC(NC(=O)c1cn(Cc2ccc(F)cc2)c2cnc(C(=O)NO)cc12)C1CC1)NC1CC1 (stereo not drawn) [Example 24, N~3~-[1-cyclopropyl-3-(cyclopropylamino)-3-oxopropyl]-1-(4-fluorobenzyl)-N~5~- hydroxy-1H-pyrrolo[2,3-c]pyridine-3,5-dicarboxamide] | 0.016 |  | 0.38
O=C(NO)c1cc2c(C(=O)NCC34CCCN3CCC4)cn(Cc3ccc(F)cc3)c2cn1 [Example 25, 1-(4-fluorobenzyl)-N~5~- hydroxy-N~3~-(tetrahydro-1H-pyrrolizin-7a(5H)-ylmethyl)-1H-pyrrolo[2,3-c]pyridine-3,5-dicarboxamide] | 0.152 |  | 0.25
CN(C)C1CCN(C(=O)c2cn(Cc3ccc(F)cc3)c3cnc(C(=O)NO)cc23)C1 (stereo not drawn) [Example 26, 3-{[3-(dimethylamino)pyrrolidin-1-yl]carbonyl}-1-(4-fluorobenzyl)-N-hydroxy-1H-pyrrolo[2,3-c]pyridine-5-carboxamide] | 0.158 |  | 0.09
O=C(NO)c1cc2c(C(=O)NCCN3CCOCC3)cn(Cc3ccc(F)cc3)c2cn1 [Example 27, 1-(4-fluorobenzyl)-N~5~- hydroxy-N~3~-(2-morpholin-4-ylethyl)-1H-pyrrolo[2,3-c]pyridine-3,5-dicarboxamide] | 0.076 |  | 0.038
Cc1c(CNC(=O)c2cn(Cc3ccc(F)cc3)c3cnc(C(=O)NO)cc23)cnn1C [Example 28, N~3~-[(1,5-dimethyl-1H-pyrazol-4-yl)methyl]-1-(4-fluorobenzyl)-N~5~- hydroxy-1H-pyrrolo[2,3-c]pyridine-3,5-dicarboxamide] | 0.046 |  | 0.1
O=C(NO)c1cc2c(C(=O)NCCCN3CCCC3=O)cn(Cc3ccc(F)cc3)c2cn1 [Example 29, 1-(4-fluorobenzyl)-N~5~- hydroxy-N~3~-[3-(2-oxopyrrolidin-1-yl)propyl]-1H-pyrrolo[2,3-c]pyridine-3,5-dicarboxamide] | 0.07 |  | 0.13
O=C(NO)c1cc2c(C(=O)N3CCCC(CO)C3)cn(Cc3ccc(F)cc3)c2cn1 (stereo not drawn) [Example 30, 1-(4-fluorobenzyl)-N-hydroxy-3-{[3-(hydroxymethyl)piperidin-1-yl]carbonyl}-1H-pyrrolo[2,3-c]pyridine-5-carboxamide] | 0.072 |  | 0.11
CCN1CCCC1CNC(=O)c1cn(Cc2ccc(F)cc2)c2cnc(C(=O)NO)cc12 (stereo not drawn) [Example 31, N~3~-[(1-ethylpyrrolidin-2-yl)methyl]-1-(4-fluorobenzyl)-N~5~- hydroxy-1H-pryyolo[2,3-c]pyridine-3,5-dicarboxamide] | 0.141 |  | 0.2
CN(O)C(=O)c1cc2c(C(=O)NCCN3CCOCC3)cn(Cc3ccc(F)cc3)c2cn1 [Example 32, 1-(4-fluorobenzyl)-N~5~- hydroxy-N~5~-methyl-N~3~-(2-morpholin-4-ylethyl)-1H-pyrrolo[2,3-c]pyridine-3,5-dicarboxamide] | 0.503 |  | 0.21
CN(O)C(=O)c1cc2c(C(=O)N3CCCC(CO)C3)cn(Cc3ccc(F)cc3)c2cn1 (stereo not drawn) [Example 33] | 0.32 |  | 0.14
CN(C)S(=O)(=O)c1cn(Cc2ccc(F)cc2)c2cnc(C(=O)NO)cc12 [Example 34] | 0.136 | 0.047 | 
CN(O)C(=O)c1cc2c(S(=O)(=O)N(C)C)cn(Cc3ccc(F)cc3)c2cn1 [Example 35, 3-[(dimethylamino)sulfonyl]-1-(4-fluorobenzyl)-N-hydroxy-N-methyl-1H-pyrrolo[2,3-c]pyridine-5-carboxamide] | 1.03 | 0.37 | 
NC(=O)[C@@H]1CCCN1S(=O)(=O)c1cn(Cc2ccc(F)cc2F)c2cnc(C(=O)NO)cc12 [Example 36, 3-{[(2S)-2-(aminocarbonyl)pyrrolidin-1-yl]sulfonyl}-1-(2,4-difluorobenzyl)-N-hydroxy-1H-pyrrolo[2,3-c]pyridine-5-carboxamide] | 0.197 | 0.34 | 
